From the NIST ThermoML archive (doi:10.1016/j.fluid.2015.06.045)
Values joined by “and” are separate entries in the source; they are usually repeats but may differ in a detail not shown here. Equal entries are not always repeated.

Legend:
[1] = molar heat capacity at constant pressure
[2] = Closed cell (Static) method

NCCO [2-aminoethan-1-ol]
[1], 100 kPa, Ideal gas
Details | molar heat capacity at constant pressure [J/K/mol]
100 K | 42.58
150 K | 53.66
200 K | 64.26
250 K | 74.41
273.15 K | 79.16
298.15 K | 84.38
300 K | 84.78
400 K | 106.54
500 K | 127.9
600 K | 146.98
700 K | 163.08
800 K | 176.25
900 K | 186.86
1000 K | 195.39

[1], 101.33 kPa, Metastable liquid, Large sample (1 g) DSC
Details | molar heat capacity at constant pressure
265.75 K | 160.55 J/K/mol
270.85 K | 161.8 J/K/mol
275.96 K | 162.46 J/K/mol
281.07 K | 163.71 J/K/mol
286.17 K | 164.54 J/K/mol
291.28 K | 165.54 J/K/mol and 165.87 J/K/mol
296.38 K | 166.54 J/K/mol and 167.29 J/K/mol
301.49 K | 168.12 J/K/mol and 167.79 J/K/mol
306.59 K | 169.2 J/K/mol and 169.12 J/K/mol
311.69 K | 170.28 J/K/mol and 170.53 J/K/mol
316.8 K | 171.36 J/K/mol and 171.69 J/K/mol
321.9 K | 172.61 J/K/mol and 173.11 J/K/mol
327.01 K | 174.1 J/K/mol and 174.27 J/K/mol
332.12 K | 175.68 J/K/mol and 175.35 J/K/mol
337.22 K | 176.68 J/K/mol and 177.18 J/K/mol
342.33 K | 178.1 J/K/mol and 178.59 J/K/mol
347.43 K | 179.51 J/K/mol and 179.43 J/K/mol
352.54 K | 181.26 J/K/mol and 181.34 J/K/mol

vapor or sublimation pressure, [2]
Details | Crystal | Metastable liquid
258.17 K | 0.00078 kPa and 0.00077 kPa and 0.00076 kPa | –
263.17 K | 0.00142 kPa | –
268.17 K | 0.00264 kPa and 0.00265 kPa | –
273.65 K | 0.0052 kPa and 0.00519 kPa and 0.00518 kPa | 0.00646 kPa
275.65 K | 0.00658 kPa | 0.00785 kPa
278.15 K | 0.00883 kPa and 0.00884 kPa | 0.00997 kPa and 0.00998 kPa
280.65 K | 0.01183 kPa and 0.01185 kPa | 0.01262 kPa and 0.01263 kPa
283.15 K | 0.01576 kPa and 0.01575 kPa | 0.0159 kPa and 0.01591 kPa and 0.01587 kPa
285.65 K | – | 0.0199 kPa and 0.01992 kPa
288.15 K | – | 0.02494 kPa and 0.02505 kPa and 0.02501 kPa
290.65 K | – | 0.03092 kPa and 0.03099 kPa
293.15 K | – | 0.03842 kPa and 0.03848 kPa and 0.03849 kPa
295.65 K | – | 0.04735 kPa and 0.04742 kPa and 0.04744 kPa
298.15 K | – | 0.05877 kPa and 0.05861 kPa and 0.05859 kPa
300.65 K | – | 0.07124 kPa and 0.07125 kPa and 0.07143 kPa
303.15 K | – | 0.08725 kPa and 0.08736 kPa
303.16 K | – | 0.08722 kPa

CN1CCCC1=O [N-methylpyrrolidone]
[1], 100 kPa, Ideal gas
Details | molar heat capacity at constant pressure [J/K/mol]
100 K | 59.31
150 K | 72.28
200 K | 85.04
250 K | 99.6
273.15 K | 106.98
298.15 K | 115.26
300 K | 115.89
400 K | 149.87
500 K | 180.98
600 K | 207.43
700 K | 229.6
800 K | 248.26
900 K | 264.08
1000 K | 277.55

[1], 101.33 kPa, Liquid, Large sample (1 g) DSC
Details | molar heat capacity at constant pressure
265.75 K | 168.2 J/K/mol and 168.12 J/K/mol
270.85 K | 169.2 J/K/mol and 169.03 J/K/mol
275.96 K | 169.62 J/K/mol and 169.86 J/K/mol
281.07 K | 170.95 J/K/mol and 170.78 J/K/mol
286.17 K | 171.86 J/K/mol
291.28 K | 173.36 J/K/mol and 172.86 J/K/mol
296.38 K | 173.94 J/K/mol and 174.27 J/K/mol
301.49 K | 175.35 J/K/mol and 175.52 J/K/mol
306.59 K | 176.52 J/K/mol
311.69 K | 177.93 J/K/mol and 177.85 J/K/mol
316.8 K | 178.93 J/K/mol and 179.09 J/K/mol
321.9 K | 180.01 J/K/mol and 180.42 J/K/mol
327.01 K | 181.84 J/K/mol and 181.75 J/K/mol
332.12 K | 183.25 J/K/mol
337.22 K | 184.41 J/K/mol and 184.66 J/K/mol
342.33 K | 185.75 J/K/mol and 186.16 J/K/mol
347.43 K | 187.24 J/K/mol
352.54 K | 188.57 J/K/mol and 188.82 J/K/mol

[2], Liquid
Details | vapor or sublimation pressure
273.65 K | 0.00631 kPa and 0.0063 kPa
278.15 K | 0.0094 kPa and 0.00937 kPa and 0.00938 kPa
283.15 K | 0.01432 kPa
288.15 K | 0.02159 kPa and 0.02162 kPa
293.15 K | 0.03193 kPa and 0.03195 kPa and 0.03196 kPa
298.15 K | 0.04664 kPa and 0.04665 kPa and 0.0466 kPa
303.15 K | 0.06708 kPa and 0.06709 kPa
308.15 K | 0.09518 kPa and 0.09516 kPa
308.17 K | 0.0951 kPa
